# Test system: M. tuberculosis H37Rv_DdnL49P_gfp
# Assay type: cell-based, Mycobacterium tuberculosis
# Details: in combination with pretomanid, unit inferred; read-out: average EC50 H37Rv_DdnL49P_gfp
row,SMILES,EC50 [nM]
1,"O=C(Nc1nc2ccc(Oc3cc(C(F)(F)F)ccn3)cc2s1)[C@@H]1C2C=CC(C2)[C@@H]1C(=O)O (stereo partly drawn) [Example 27, 3-[[6-[[4-(trifluoromethyl)-2-pyridyl]oxy]-1,3-benzothiazol-2-yl]carbamoyl]bicyclo[2.2.1]hept-5-ene-2-carboxylic acid]",230
2,"COc1ccc(-c2ccc3nc(NC(=O)[C@@H]4C5C=CC(C5)[C@@H]4C(=O)O)sc3c2)cc1 (stereo partly drawn) [Example 54, 3-[[6-(4-methoxyphenyl)-1,3-benzothiazol-2-yl]carbamoyl]bicyclo[2.2.1]hept-5-ene-2-carboxylic acid]",690

# Same assay, conditions: read-out: EC50 H37Rv_DdnL49P_gfp
row,SMILES,EC50 [nM]
1,"CCOc1ccc2nc(N3C(=O)[C@@H]4[C@H](C3=O)[C@@H]3C=C[C@H]4C3)sc2c1 [Example 8, (1R,2S,6R,7S)-4-(6-ethoxy-1,3-benzothiazol-2-yl)-4-azatricyclo[5.2.1.02,6]dec-8-ene-3,5-dione]",1000 to 5000
2,"O=C1[C@@H]2[C@H](C(=O)N1c1nc3ccc(Oc4cc(C(F)(F)F)ccn4)cc3s1)[C@@H]1C=C[C@H]2C1 [Example 28, (1R,2S,6R,7S)-4-[6-[[4-(trifluoromethyl)-2-pyridyl]oxy]-1,3-benzothiazol-2-yl]-4-azatricyclo[5.2.1.02,6]dec-8-ene-3,5-dione]",< 1000
3,"Cc1ccc2sc(NC(=O)[C@@H]3C4C=CC(C4)[C@@H]3C(=O)O)nc2c1C (stereo partly drawn) [Example 15, 3-[(4,5-dimethyl-1,3-benzothiazol-2-yl)carbamoyl]bicyclo[2.2.1]hept-5-ene-2-carboxylic acid]",1000 to 5000
4,"O=C(Nc1nc2ccc(Oc3cc(C(F)(F)F)ccn3)cc2s1)[C@@H]1C2C=CC(C2)[C@@H]1C(=O)O (stereo partly drawn) [Example 27, 3-[[6-[[4-(trifluoromethyl)-2-pyridyl]oxy]-1,3-benzothiazol-2-yl]carbamoyl]bicyclo[2.2.1]hept-5-ene-2-carboxylic acid]",< 1000
5,"Cc1ccc2nc(N3C(=O)[C@@H]4[C@H](C3=O)[C@@H]3C=C[C@H]4C3)sc2c1 [Example 2, (1R,2S,6R,7S)-4-(6-methyl-1,3-benzothiazol-2-yl)-4-azatricyclo[5.2.1.02,6]dec-8-ene-3,5-dione]",5000 to 10000
6,"O=C(Nc1nc2ccc(Oc3ncccc3C(F)(F)F)cc2s1)[C@@H]1C2C=CC(C2)[C@@H]1C(=O)O (stereo partly drawn) [Example 25, 3-[[6-[[3-(trifluoromethyl)-2-pyridyl]oxy]-1,3-benzothiazol-2-yl]carbamoyl]bicyclo[2.2.1]hept-5-ene-2-carboxylic acid]",1000 to 5000
7,"O=C1C2C3C=CC(C3)C2C(=O)N1c1nc2ccc(-c3ccccc3C(F)(F)F)cc2s1 [Example 58, (1R,2S,6R,7S)-4-[6-[[2-(trifluoromethyl)phenyl]-1,3-benzothiazol-2-yl]-4-azatricyclo [5.2.1.02,6]dec-8-ene-3,5-dione]",10000 to 20000
8,"O=C(Nc1nc2ccc(-c3ccoc3)cc2s1)[C@@H]1C2C=CC(C2)[C@@H]1C(=O)O (stereo partly drawn) [Example 69, 3-[[6-(3-furyl)-1,3-benzothiazol-2-yl]carbamoyl]bicyclo[2.2.1]hept-5-ene-2-carboxylic acid]",< 1000
9,"O=C(Nc1nc2ccc(Oc3ccc(C(F)(F)F)cn3)cc2s1)[C@@H]1C2C=CC(C2)[C@@H]1C(=O)O (stereo partly drawn) [Example 35, 3-[[6-[[5-(trifluoromethyl)-2-pyridyl]oxy]-1,3-benzothiazol-2-yl]carbamoyl]bicyclo[2.2.1]hept-5-ene-2-carboxylic acid]",1000 to 5000
10,"O=C1[C@@H]2[C@H](C(=O)N1c1nc3ccc(-c4ccoc4)cc3s1)[C@@H]1C=C[C@H]2C1 [Example 70, (1R,2S,6R,7S)-4-[6-(3-furyl)-1,3-benzothiazol-2-yl]-4-azatricyclo[5.2.1.02,6]dec-8-ene-3,5-dione]",1000 to 5000
11,"O=C(Nc1nc2ccc(Nc3ccc(C(F)(F)F)cn3)cc2s1)[C@@H]1C2C=CC(C2)[C@@H]1C(=O)O (stereo partly drawn) [Example 96, 3-[[6-[[5-(trifluoromethyl)-2-pyridyl]amino]-1,3-benzothiazol-2-yl]carbamoyl]bicyclo[2.2.1]hept-5-ene-2-carboxylic acid]",< 1000
12,"O=C(Nc1nc2ccc(C#Cc3ccccc3)cc2s1)[C@@H]1C2C=CC(C2)[C@@H]1C(=O)O (stereo partly drawn) [Example 77, 3-[[6-(2-phenylethynyl)-1,3-benzothiazol-2-yl]carbamoyl]bicyclo[2.2.1]hept-5-ene-2-carboxylic acid]",< 1000
13,"O=C(Nc1nc2ccc(Nc3ccnc(F)c3)cc2s1)[C@@H]1C2C=CC(C2)[C@@H]1C(=O)O (stereo partly drawn) [Example 99, 3-[[6-[(2-fluoro-4-pyridyl)amino]-1,3-benzothiazol-2-yl]carbamoyl]bicyclo[2.2.1]hept-5-ene-2-carboxylic acid]",1000 to 5000
14,"CC(C)(C)c1ccc2nc(NC(=O)[C@@H]3C4C=CC(C4)[C@@H]3C(=O)O)sc2c1 (stereo partly drawn) [Example 12, 3-[(6-tert-butyl-1,3-benzothiazol-2-yl)carbamoyl]bicyclo[2.2.1]hept-5-ene-2-carboxylic acid]",< 1000
15,"O=C1[C@@H]2[C@H](C(=O)N1c1nc3ccc(Oc4ccc(C(F)(F)F)cc4)cc3s1)[C@@H]1C=C[C@H]2C1 [Example 23, (1R,2S,6R,7S)-4-[6-[4-(trifluoromethyl)phenoxy]-1,3-benzothiazol-2-yl]-4-azatricyclo[5.2.1.02,6]dec-8-ene-3,5-dione]",1000 to 5000
16,"O=C1[C@@H]2C3C=CC(C3)[C@@H]2C(=O)N1c1nc2ccc(Nc3cccc(F)n3)cc2s1 [Example 89, 4-[6-[(6-fluoro-2-pyridyl)amino]-1,3-benzothiazol-2-yl]-4-azatricyclo[5.2.1.02,6]dec-8-ene-3,5-dione]",1000 to 5000
17,"O=C(Nc1nc2ccc(Oc3ccc(Br)cn3)cc2s1)[C@@H]1C2C=CC(C2)[C@@H]1C(=O)O (stereo partly drawn) [Example 37, 3-[[6-[(5-bromo-2-pyridyl)oxy]-1,3-benzothiazol-2-yl]carbamoyl]bicyclo [2.2.1]hept-5-ene-2-carboxylic acid]",1000 to 5000

row,SMILES,EC50 [nM]
1,"N#Cc1ccnc(Oc2ccc3nc(N4C(=O)[C@@H]5[C@H](C4=O)[C@@H]4C=C[C@H]5C4)sc3c2)c1 [Example 31, 2-[[2-[(1R,2S,6R,7S)-3,5-dioxo-4-azatricyclo[5.2.1.02,6]dec-8-en-4-yl]-1,3-benzothiazol-6-yl]oxy]pyridine-4-carbonitrile]",5000 to 10000
2,"O=C(Nc1nc2ccc(Oc3ccccc3)cc2s1)[C@@H]1C2C=CC(C2)[C@@H]1C(=O)O (stereo partly drawn) [Example 17, 3-[(6-phenoxy-1,3-benzothiazol-2-yl)carbamoyl]bicyclo[2.2.1]hept-5-ene-2-carboxylic acid]",< 1000
3,"C#CCOc1cccc2sc(NC(=O)[C@@H]3C4C=CC(C4)[C@@H]3C(=O)O)nc12 (stereo partly drawn) [Example 75, 3-[(4-prop-2-ynoxy-1,3-benzothiazol-2-yl)carbamoyl]bicyclo[2.2.1]hept-5-ene-2-carboxylic acid]",1000 to 5000
4,"O=C(Nc1nc2ccc(-c3ccccc3C(F)(F)F)cc2s1)[C@@H]1C2C=CC(C2)[C@@H]1C(=O)O (stereo partly drawn) [Example 57, 3-[6-[[2-(trifluoromethyl)phenyl]-1,3-benzothiazol-2-yl]carbamoyl]bicyclo[2.2.1]hept-5-ene-2-carboxylic acid]",10000 to 20000
5,"O=C(O)C1C2C=CC(C2)[C@H]1C(=O)Nc1nc2ccc(-c3ccc(C(F)(F)F)nc3)cc2s1 (stereo partly drawn) [Example 66, 3-[[6-[6-(trifluoromethyl)-3-pyridyl]-1,3-benzothiazol-2-yl]carbamoyl]bicyclo [2.2.1]hept-5-ene-2-carboxylic acid]",1000 to 5000
6,"O=C(Nc1nc2ccc(-c3ccc(OC(F)(F)F)cc3)cc2s1)[C@@H]1C2C=CC(C2)[C@@H]1C(=O)O (stereo partly drawn) [Example 62, 3-[[6-[4-(trifluoromethoxy)phenyl]-1,3-benzothiazol-2-yl]carbamoyl]bicyclo[2.2.1]hept-5-ene-2-carboxylic acid]",< 1000
7,"Cc1cc(C)c2nc(NC(=O)[C@@H]3C4C=CC(C4)[C@@H]3C(=O)O)sc2c1 (stereo partly drawn) [Example 13, 3-[(4,6-dimethyl-1,3-benzothiazol-2-yl)carbamoyl]bicyclo[2.2.1]hept-5-ene-2-carboxylic acid]",1000 to 5000
8,"O=C1[C@@H]2[C@H](C(=O)N1c1nc3ccc(-c4ccc(C(F)(F)F)cc4)cc3s1)[C@@H]1C=C[C@H]2C1 [Example 61, (1R,2S,6R,7S)-4-[6-[4-(trifluoromethyl)phenyl]-1,3-benzothiazol-2-yl]-4-azatricyclo[5.2.1.02,6]dec-8-ene-3,5-dione]",< 1000
9,"O=C1[C@@H]2C3C=CC(C3)[C@@H]2C(=O)N1c1nc2ccc(-c3ccc(F)nc3)cc2s1 [Example 65, (1R,2S,6R,7S)-4-[6-(6-fluoro-3-pyridyl)-1,3-benzothiazol-2-yl]-4-azatricyclo[5.2.1.02.6]dec-8-ene-3,5-dione]",1000 to 5000
10,"O=C(Nc1nc2ccc(-c3cncnc3)cc2s1)[C@@H]1C2C=CC(C2)[C@@H]1C(=O)O (stereo partly drawn) [Example 80, 3-[(6-pyrimidin-5-yl-1,3-benzothiazol-2-yl)carbamoyl]bicyclo[2.2.1]hept-5-ene-2-carboxylic acid]",10000 to 20000
11,"O=C(Nc1nc2ccc(OC(F)(F)F)cc2s1)[C@@H]1C2C=CC(C2)[C@@H]1C(=O)O (stereo partly drawn) [Example 44, 3-[[6-(trifluoromethoxy)-1,3-benzothiazol-2-yl]carbamoyl]bicyclo[2.2.1]hept-5-ene-2-carboxylic acid]",1000 to 5000
12,"COc1ccc(-c2ccc3nc(NC(=O)[C@@H]4C5C=CC(C5)[C@@H]4C(=O)O)sc3c2)cc1 (stereo partly drawn) [Example 54, 3-[[6-(4-methoxyphenyl)-1,3-benzothiazol-2-yl]carbamoyl]bicyclo[2.2.1]hept-5-ene-2-carboxylic acid]",< 1000
13,O=C(Nc1nc2ccc(-c3ccc(N4CCCCC4)cc3)cc2s1)[C@@H]1C2C=CC(C2)[C@@H]1C(=O)O (stereo partly drawn) [Example 100],< 1000
14,"C#Cc1ccc2nc(N3C(=O)[C@@H]4[C@H](C3=O)[C@@H]3C=C[C@H]4C3)sc2c1 [Example 72, (1R,2S,6R,7S)-4-(6-ethynyl-1,3-benzothiazol-2-yl)-4-azatricyclo[5.2.1.02,6]dec-8-ene-3,5-dione]",1000 to 5000
15,"COc1cc2nc(NC(=O)[C@@H]3C4C=CC(C4)[C@@H]3C(=O)O)sc2cc1OC (stereo partly drawn) [Example 9, 3-[(5,6-dimethoxy-1,3-benzothiazol-2-yl)carbamoyl]bicyclo[2.2.1]hept-5-ene-2-carboxylic acid]",5000 to 10000
16,"O=C(Nc1nc2ccc(C#CC3CC3)cc2s1)[C@@H]1C2C=CC(C2)[C@@H]1C(=O)O (stereo partly drawn) [Example 79, 3-[[6-(2-cyclopropylethynyl)-1,3-benzothiazol-2-yl]carbamoyl]bicyclo[2.2.1]hept-5-ene-2-carboxylic acid]",< 1000
17,"O=C(Nc1nc2ccc(C(F)(F)F)cc2s1)[C@@H]1C2C=CC(C2)[C@@H]1C(=O)O (stereo partly drawn) [Example 43, 3-[[6-(trifluoromethyl)-1,3-benzothiazol-2-yl]carbamoyl]bicyclo[2.2.1]hept-5-ene-2-carboxylic acid]",1000 to 5000

# From patent US20250382273A1 (INSTITUT NATIONAL DE LA SANTE ET DE LA RECHERCHE MEDICALE, priority 2022, published 2025)
